The values below come from article PMC7722354, “7-Substituted 2-Nitro-5,6-dihydroimidazo[2,1-b][1,3]oxazines: Novel Antitubercular Agents Lead to a New Preclinical Candidate for Visceral Leishmaniasis” (Journal of Medicinal Chemistry, 2017).

What is called logD is lipophilicity at a set pH, counting ionised and neutral species. A lower logD goes with a more hydrophilic compound. Broadly, the IC50 is the concentration at which inhibition is half-maximal.

The subject of one data set is Caco-2. The settings on record: cited from earlier work.
In data set [1] the test system is human lung fibroblasts (MRC-5 cells). Also on record: method as in PMID 26901446. The settings on record: cytotoxicity; cited from earlier work.
The next data set concerns Leishmania donovani. Also on record: method as in PMID 26901446. The settings on record: in mouse macrophages; cited from earlier work.
Data set [2] has as its system Salmonella strains (TA98 and TA100).
From the text: Ames Test. […] Two Salmonella strains (TA98 and TA100) were employed, both in the presence and absence of metabolic activation (rat liver S9). Positive controls (2-aminoanthracene, 2-nitrofluorene, and sodium azide) and a negative (DMSO solvent) control were included.

On to `C[C@]1(COc2ccc(OC(F)(F)F)cc2)Cn2cc([N+](=O)[O-])nc2O1` [compound 4], for which the logD in “physchem” was determined as 3.1. Moreover, in the data set with Caco-2, the “permeability Papp A to B” value is given as 22.6 × 10^–6 cm/s. Also, the “permeability Papp B to A” value with Caco-2 was 24.7 × 10^–6 cm/s. Also, the concentration for half-maximal inhibition (IC50) was greater than 64000 nM in data set [1] and 30 nM in the data set on Leishmania donovani. Also, the “mutagenic effect (Ames test)” value in data set [2] is recorded as “no”.
